{
  "source": "paper PMC9963121",
  "about": "“Development of Combretastatin A-4 Analogues as Potential Anticancer Agents with Improved Aqueous Solubility” (Molecules, 2023)",
  "key": {"AGS gastric cancer cell": {"system": "AGS gastric cancer cell", "assay": "MTT cell growth inhibition assay, AGS gastric cancer cells", "type": "cell-based", "conditions": "Homo sapiens, mean ± SD of three experiments", "description": "(§1) Initially, we designed and synthesised seven compounds—9a and 12a1–12a6—and evaluated the anticancer activity and aqueous solubility. We evaluated the cytotoxic effects of these stilbene nitrile analogues against a panel of four human cancer cell lines (HCT-116, BEL-7402, MCF-7 and AGS) and two human non-cancerous normal cell lines (L-02 and MCF-10A), using CA-4 as a control. The compounds were screened for aqueous solubility in 0.01 M PBS using a high throughput UV method. […] It is possible that the size of the nitrogen heterocycle had little effect on the activity of these compounds. […] The aqueous solubility of all the compounds 12a1–12a6 was higher than that of 9a, particularly that of 12a1 and 12a2 containing piperazine rings. […] Of the six compounds with improved aqueous solubility, 12a1 had the best activity.\n(§2) All human cell lines were used in this study. AGS gastric cancer cell, BEL-7402 liver cancer cell, HCT-116 colorectal cancer cell, L-02 normal liver cell, MCF-7 breast cancer cell, and MCF-10A normal breast cell were initially purchased from American Type Culture Collection (ATCC, Manassas, VA, USA). RPMI-1640 media, DMEM and FBS, were provided by Gibco Company. The cells were maintained in DMEM or RPMI-1640, supplemented with 10% FBS, 100 IU/mL penicillin and […] streptomycin, and at 37 °C in a humidified atmosphere containing 5% CO2.\n(§3) The experiment was carried out according to the method of reference."}, "MCF-7 breast cancer cell": {"system": "MCF-7 breast cancer cell", "assay": "MTT cell growth inhibition assay, MCF-7 breast cancer cells", "type": "cell-based", "conditions": "Homo sapiens, MCF7, mean ± SD of three experiments", "description": "as §1, §2, §3"}, "[1]": {"system": "HCT-116 colorectal cancer cell", "assay": "MTT cell growth inhibition assay, HCT-116 colorectal cancer cells", "type": "cell-based, human", "conditions": "Homo sapiens, HCT-116; MTT; mean ± SD of three experiments", "description": "as §1, §2, §3"}, "[2]": {"system": "MCF-10A normal breast cell", "assay": "MTT cell growth inhibition assay, MCF-10A normal breast cells", "type": "cell-based", "conditions": "Homo sapiens, mean ± SD of three experiments, read-out: IC50 MCF-10A Normal Breast Epithelial Cells", "description": "as §1, §2, §3"}, "L-02 normal liver cell": {"system": "L-02 normal liver cell", "assay": "MTT cell growth inhibition assay, L-02 normal liver cells", "type": "cell-based", "conditions": "Homo sapiens, mean ± SD of three experiments", "description": "as §1, §2, §3"}, "[3]": {"assay": "Aqueous solubility in 0.01 M PBS, high throughput UV method", "type": "physicochemical", "conditions": "aqueous phosphate buffer, aqueous buffer; sodium phosphate buffer 0.01 M, pH 7.4, 22 ± 2 °C; mean ± SD", "description": "as §1\nThe aqueous solubility was determined as a previously reported procedure. Put simply, a certain amount of powdered compound was placed in a 2 mL centrifuge tube and mixed with an appropriate volume of aqueous phosphate buffer (10 mM, pH 7.4) to make the whole system supersaturated. The mixtures were sonicated (KQ5200DE numerical control ultrasonic cleaner, Kunshan Ultrasonic Instrument Co., Ltd., SuZhou, China) for 20 min. After sonication, the mixture was allowed to equilibrate at RT (22 ± 2 °C) for 1.5 h with vortex shaking (1200 rpm). Then centrifuged at 3000 rpm for 15 min (1-14k, sigma, Darmstadt, Germany), the supernatant was filtered with a 0.22 µM filter membrane. And then, take 150 µL of filtrate and add it to 96-well UV plate with triplicate. Draw 150 μL of blank solution was added into plate as blank control. The 96-well UV plate prepared above was read on a Synergy HTX Multifunctional Microplate Reader (BioTek, Vermont, USA) at 294 nm. The absorbance of the sample was corrected according to the UV response of the sample and blank solution, and the corrected UV response values were used for solubility calculations by bringing into the standard curve of the compound. […]\n1.5. Solubility Assessment\nThe aqueous solubility was determined as previously reported using the high throughput solubility screens procedure published by Bruno Bard et al [9. 10]. Put simply, a certain amount of powdered compound was placed in a 2 ml centrifuge tube and mixed with an appropriate volume of aqueous phosphate buffer (0.01 M, pH 7.4) to make the whole system supersaturated. The mixtures were sonicated (KQ5200DE numerical control ultrasonic cleaner, Kunshan Ultrasonic Instrument Co., Ltd., China) for 20 min. After sonication, the mixture was allowed to equilibrate at room temperature (22 ± 2°C) for 1.5 h with vortex shaking (1200 rpm). Then the centrifuge tube was put into the centrifuge (1-14k, sigma, Germany), centrifuged with 3000 rpm for 15 minutes, 0.22 µM filter membrane filtration supernatant, then take 150 µl filtrate and add it to 96-well UV plate, with three well for each compound. Draw 150 μL blank solution were added into 96 well-plate as blank control. The 96-well UV […]\nplate prepared above was read on a SynergyHTX Multifunctional microplate reader (BioTek, USA) at 338 nm (compounds 12a-12d and 15-20) or 370 nm (compounds 9a-d). The absorbance of the sample was corrected according to the UV response of the sample and blank solution, and the corrected UV responses value were used for solubility calculations by bring into the standard curve of the compound. […]"}, "[4]": {"assay": "Drug-plasma protein binding rate, equilibrium dialysis", "type": "in vitro ADME", "conditions": "rat, equilibrium dialysis vs phosphate buffer pH 7.4, 4 °C", "procedure": "Compounds at 90 μM concentration were mixed with rat plasma, and the mixtures were subjected to equilibrium dialysis versus phosphate buffer (pH 7.4) at 4 °C for 48 h. The dialysis membrane of molecular weight cut off 1 kDa was used. Dialysis experiments were done in triplicate. On completion of the dialysis period, absorb a certain amount of buffer and plasma, respectively, and add methanol to treat the sample. Dialysis samples were analysed by HPLC. The plasma protein binding rate of the compound was calculated as follows: protein binding rate/% = (plasma drug concentration inside dialysis bag—dialysate drug concentration outside dialysis bag)/plasma drug concentration inside dialysis bag × 100%. […]\ninjection volume was 3 μL. The column temperature was set at 40℃.\n1.7. The drug-plasma protein binding rate assessment\nCompound 12a1 at 90 μM concentration were mixed with rats plasma. The mixtures were subjected to equilibrium dialysis versus phosphate buffer pH 7.4 buffer at 4℃ for 48 hour using equilibrium dialysis. The dialysis membrane of molecular weight cutoff 1 kDa was used. […] Dialysis samples were analyzed by HPLC, The plasma protein binding rate of the compound was calculated as follows: protein binding rate ∕ % = (plasma drug concentration inside dialysis bag − dialysate drug concentration outside dialysis bag) ∕ plasma drug concentration inside dialysis bag × […]"}},
  "data": [
    {"smiles": "COc1cc(/C(C#N)=C/c2ccc(NC(=O)CN3CCN(C)CC3)cc2)cc(OC)c1OC", "note": "[12a1]", "values": [
      {"measurement": "IC50", "setting": "AGS gastric cancer cell", "value": "10.7 ± 0.52", "unit": "µM"},
      {"measurement": "IC50", "setting": "MCF-7 breast cancer cell", "value": "16.1 ± 2.7", "unit": "µM"},
      {"measurement": "IC50", "setting": "[1]", "value": "2.44 ± 0.29", "unit": "µM"},
      {"measurement": "IC50", "setting": "[2]", "value": "20.9 ± 0.78", "unit": "µM"},
      {"measurement": "IC50", "setting": "L-02 normal liver cell", "value": "32.7 ± 1.44", "unit": "µM"},
      {"measurement": "solubility thermodynamic at 1.5 h", "setting": "[3]", "value": "18.2 ± 0.619", "unit": "mg/mL"},
      {"measurement": "fraction unbound at 48 h, 90 μM", "setting": "[4]", "value": 0.393}
    ]}
  ]
}
